# Source: the supplement of paper PMC10883282
# Structures can show the parent of a compound that is named as a salt. ± gives the standard deviation of the averaged measurements.
# System: HT1080
# Experiment: relative viability vs DMSO control (72 h) (fraction); higher = more viable cells
# How it was run: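 Densities for seeding sarcoma cell lines into 384-well plates were set to give 80–90% confluence. After 24 h, 2.5 µl of serially diluted compound from source plates of 10 mM to 0.0002 mM went in, and plates stayed 72 h at 37 °C in 5% CO2 with 0.1% DMSO vehicle and a 5 µM positive control. Percent growth from ATPLite readings, averaged over up to triplicate wells, served as relative viability, rescaled so 1 means full and 0 means none.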
SMILES,relative viability (0.00017 µM),relative viability (0.00051 µM),relative viability (0.00152 µM),relative viability (0.00457 µM),relative viability (0.01372 µM),relative viability (0.04115 µM),relative viability (0.1235 µM),relative viability (0.3704 µM),relative viability (1.111 µM),relative viability (3.333 µM),relative viability (10 µM),relative viability (2 pM),relative viability (5 pM),relative viability (15 pM),relative viability (50 pM),relative viability (0.00014 µM),relative viability (0.00041 µM),relative viability (0.0012 µM),relative viability (0.0037 µM),relative viability (0.011 µM),relative viability (200 fM),relative viability (600 fM)
CCCS(=O)(=O)Nc1ccc(F)c(C(=O)c2c[nH]c3ncc(-c4ccc(Cl)cc4)cc23)c1F [Vemurafenib],1.1 ± 0.032,1.07 ± 0.049,1.09 ± 0.05,1.08 ± 0.031,1.08 ± 0.044,1.07 ± 0.045,1.07 ± 0.043,1.08 ± 0.04,1.13 ± 0.031,1.04 ± 0.023,0.663 ± 0.25,–,–,–,–,–,–,–,–,–,–,–
COCc1c(-c2cc3cc(C)cc(OC)c3s2)c2c(N)ncnn2c1CN1CCNC(=O)C1 [Rogaratinib],1.08 ± 0.023,1.09 ± 0.041,1.07 ± 0.028,1.038 ± 0.0047,1.05 ± 0.013,1.06 ± 0.017,1.05 ± 0.017,1.07 ± 0.04,1.084 ± 0.0066,1.09 ± 0.024,1.06 ± 0.032,–,–,–,–,–,–,–,–,–,–,–
C=CC(=O)N1CCC([C@@H]2CCNc3c(C(N)=O)c(-c4ccc(Oc5ccccc5)cc4)nn32)CC1 [Zanubrutinib],1.04 ± 0.022,1.05 ± 0.022,1.04 ± 0.04,1.03 ± 0.024,1.03 ± 0.026,1.03 ± 0.031,1.03 ± 0.028,1.05 ± 0.071,1.017 ± 0.0087,1.02 ± 0.033,1.02 ± 0.026,–,–,–,–,–,–,–,–,–,–,–
COc1cccc2c1C(=O)c1c(O)c3c(c(O)c1C2=O)C[C@@](O)(C(=O)CO)C[C@@H]3O[C@H]1C[C@H](N)[C@H](O)[C@H](C)O1 [Doxorubicin Hydrochloride],1.09 ± 0.015,1.071 ± 0.0078,1.04 ± 0.025,1.05 ± 0.024,0.97 ± 0.028,0.707 ± 0.01,0.5504 ± 0.0046,0.117 ± 0.0055,0.105 ± 0.0013,0.183 ± 0.0044,0.115 ± 0.0043,–,–,–,–,–,–,–,–,–,–,–
CC(C)NC(=O)C1CCC(n2c(NC(=O)c3ccc(F)cc3)nc3ccc(CN4CCC(C(C)(C)O)CC4)cc32)CC1 (stereo not drawn) [Belizatinib],1.079 ± 0.0088,1.09 ± 0.036,1.05 ± 0.018,1.08 ± 0.057,1.07 ± 0.052,1.08 ± 0.021,1.062 ± 0.0014,1.06 ± 0.069,1.03 ± 0.056,0.866 ± 0.014,0.4946 ± 0.0036,–,–,–,–,–,–,–,–,–,–,–
COc1cc2/c(=N/c3ccc(Br)cc3F)nc[nH]c2cc1OCC1CCN(C)CC1 [Vandetanib],1.02 ± 0.015,1.02 ± 0.026,1.03 ± 0.026,1.03 ± 0.022,1.03 ± 0.026,1.02 ± 0.034,1.02 ± 0.043,1.03 ± 0.031,1.02 ± 0.02,0.962 ± 0.04,0.326 ± 0.022,–,–,–,–,–,–,–,–,–,–,–
C[C@@H]1CCN(C(=O)CC#N)C[C@@H]1N(C)c1ncnc2[nH]ccc12 [Tofacitinib],1.06 ± 0.044,1.1 ± 0.035,1.07 ± 0.025,1.077 ± 0.0086,1.1 ± 0.022,1.08 ± 0.018,1.08 ± 0.085,1.1 ± 0.04,1.07 ± 0.012,1.03 ± 0.027,1.02 ± 0.024,–,–,–,–,–,–,–,–,–,–,–
Cn1cnc2c(F)c(Nc3ccc(Br)cc3F)c(C(=O)NOCCO)cc21 [Binimetinib],1.1 ± 0.019,1.09 ± 0.031,1.09 ± 0.021,1.03 ± 0.026,1.031 ± 0.0075,0.8738 ± 0.0029,0.752 ± 0.017,0.626 ± 0.015,0.577 ± 0.026,0.518 ± 0.034,0.451 ± 0.032,–,–,–,–,–,–,–,–,–,–,–
Cc1nc(-c2cn3c(n2)-c2ccc(-c4cnn(C(C)(C)C(N)=O)c4)cc2OCC3)n(C(C)C)n1 [Taselisib],1.016 ± 0.01,1.01 ± 0.017,1.02 ± 0.015,1.03 ± 0.056,1.02 ± 0.011,1.02 ± 0.016,1.034 ± 0.0069,1.04 ± 0.018,1.02 ± 0.052,1.01 ± 0.012,0.738 ± 0.0029,–,–,–,–,–,–,–,–,–,–,–
Nc1cc(C(F)(F)F)c(-c2cc(N3CCOCC3)nc(N3CCOCC3)n2)cn1 [Buparlisib],1.01 ± 0.077,1.02 ± 0.024,1.018 ± 0.0073,1.05 ± 0.036,1.04 ± 0.015,1.03 ± 0.022,1.03 ± 0.039,1.07 ± 0.013,1 ± 0.013,0.11 ± 0.0037,0.0244 ± 0.0015,–,–,–,–,–,–,–,–,–,–,–
Cc1cnc(Nc2ccc(OCCN3CCCC3)cc2)nc1Nc1cccc(S(=O)(=O)NC(C)(C)C)c1 [Fedratinib],1.11 ± 0.027,1.03 ± 0.056,1.08 ± 0.0082,1.06 ± 0.032,1.07 ± 0.044,1.05 ± 0.044,1.04 ± 0.009,1.03 ± 0.022,0.813 ± 0.015,0.391 ± 0.014,0.0298 ± 0.0037,–,–,–,–,–,–,–,–,–,–,–
COc1cc2c(Oc3ccc4[nH]c(C)cc4c3F)ncnc2cc1OCCCN1CCCC1 [Cediranib],1.08 ± 0.022,1.08 ± 0.015,1.06 ± 0.011,1.095 ± 0.0091,1.1 ± 0.011,1.07 ± 0.031,1.08 ± 0.016,1.1 ± 0.015,1.1 ± 0.027,1.08 ± 0.035,1.06 ± 0.024,–,–,–,–,–,–,–,–,–,–,–
CC(=O)Nc1cccc(-n2c(=O)n(C3CC3)c(=O)c3c(Nc4ccc(I)cc4F)n(C)c(=O)c(C)c32)c1 [Trametinib],1.1 ± 0.022,1.119 ± 0.0055,1.039 ± 0.0014,0.981 ± 0.041,0.638 ± 0.029,0.537 ± 0.017,0.478 ± 0.032,0.377 ± 0.011,0.351 ± 0.02,0.334 ± 0.018,0.296 ± 0.014,–,–,–,–,–,–,–,–,–,–,–
CC(C)N1CCN(Cc2cnc(-c3cc(-c4cccc5[nH]ccc45)cc4[nH]ncc34)o2)CC1 [Nemiralisib],1 ± 0.045,1.03 ± 0.015,1.01 ± 0.02,1.027 ± 0.0081,1.008 ± 0.0024,1.02 ± 0.011,1.05 ± 0.045,1.05 ± 0.034,1.08 ± 0.068,1.02 ± 0.033,0.858 ± 0.024,–,–,–,–,–,–,–,–,–,–,–
Cc1cc(Nc2ncnc3ccc(NC4=NC(C)(C)CO4)cc23)ccc1Oc1ccn2ncnc2c1 [Tucatinib],1.06 ± 0.043,1.071 ± 0.0057,1.108 ± 0.0063,1.09 ± 0.054,1.1 ± 0.027,1.0875 ± 7.1e-05,1.08 ± 0.032,1.067 ± 0.01,1.05 ± 0.011,1.06 ± 0.026,0.948 ± 0.012,–,–,–,–,–,–,–,–,–,–,–
COc1cc2c(cc1O)CCN[C@]21CS[C@@H]2c3c(OC(C)=O)c(C)c4c(c3[C@H](COC1=O)N1[C@@H]2[C@H]2c3c(cc(C)c(OC)c3O)C[C@@H]([C@@H]1O)N2C)OCO4 [Trabectedin],–,–,–,–,–,–,–,–,–,–,–,1.13 ± 0.038,1.12 ± 0.048,1.09 ± 0.047,1.094 ± 0.0095,1.11 ± 0.031,1.077 ± 0.0069,0.023 ± 0.0022,0.21 ± 0.0023,0.159 ± 0.005,1.08 ± 0.032,1.14 ± 0.017
C[C@@H]1COCCN1c1cc(-c2ccnn2C)c2ccnc(-c3ccn[nH]3)c2n1,1.044 ± 0.0047,1.03 ± 0.014,1.024 ± 0.0029,1.02 ± 0.025,0.998 ± 0.035,0.954 ± 0.017,0.735 ± 0.037,0.28 ± 0.0093,0.191 ± 0.0041,0.16 ± 0.0093,0.1555 ± 0.00028,–,–,–,–,–,–,–,–,–,–,–
Cc1cc(C)c(/C=C2\C(=O)Nc3ccccc32)[nH]1 [Semaxanib],0.923 ± 0.051,0.964 ± 0.038,0.94 ± 0.023,0.945 ± 0.018,0.926 ± 0.022,0.946 ± 0.049,0.893 ± 0.059,0.921 ± 0.018,0.928 ± 0.023,0.939 ± 0.034,0.888 ± 0.065,–,–,–,–,–,–,–,–,–,–,–
